Consider 1 molecule from patent publication US6693134B2, “Bicyclic aromatic chemokine receptor ligands” (Chemokine Therapeutics Corporation, priority 2001, dated 2004).

Structures are written as SMILES.

As usually defined, the IC50 is the point on the concentration scale where inhibition reaches its midpoint. A lower IC50 goes with higher potency.

The target in assay [1] is T1, CXCR-4 (Homo sapiens, UniProt P61073). The assay can be described thus: Inhibition of binding of I125 labeled SDF-1 to CXCR-4 receptor. As to conditions: I125 labeled SDF-1 as competitor ligand. As to the method:
This example discloses the ability of compounds of the invention, such as naphthoic acid derivatives, such as CTCM226 (1), to inhibit binding of SDF-1 to CXCR-4 receptor. The binding studies were conducted using I^125 labeled SDF-1 as competitor ligand.

Assay [2] has as its target T1, CXCR-4. The assay can be described thus: Inhibition of SDF-1 induced intracellular [Ca2+]i mobilization in THP-1 cells. Details: endogenous in cells; host or cells: THP-1 cells. It is filed as cell-based. Particulars: Fura-2,AM loaded THP-1 cells; incubated 60 min prior to induction by 10 nM SDF-1. The procedure:
A rapid, transient rise in the free cytosolic Ca^2+ concentration ([Ca^2+]i) is one of the events associated with the Chemokine mediated induction of the associated receptors and is assumed to be involved in many of the subsequent cellular reactions. Both Ca^2+ release from intracellular stores and Ca^2+ influx from the extracellular space contribute to the rise in [Ca^2+]i. […] Fura-2,AM loaded THP-1 cells were incubated with CTCM226 for 60 min prior to induction of [Ca^2+]i mobilization by 10 nM SDF-1. Results illustrate the effect of CTCM226 (1) on SDF-1 induced Ca^2+ mobilization.
In accordance with this aspect of the invention, the naphthoic acid derivative, such as compound 1 or corresponding salts may be used for the treatment of a wide range of inflammatory diseases such as gout, arthritis, osteoarthritis, rheumatoid arthritis, and ARDS.

T1 sequence (P61073 whole entry): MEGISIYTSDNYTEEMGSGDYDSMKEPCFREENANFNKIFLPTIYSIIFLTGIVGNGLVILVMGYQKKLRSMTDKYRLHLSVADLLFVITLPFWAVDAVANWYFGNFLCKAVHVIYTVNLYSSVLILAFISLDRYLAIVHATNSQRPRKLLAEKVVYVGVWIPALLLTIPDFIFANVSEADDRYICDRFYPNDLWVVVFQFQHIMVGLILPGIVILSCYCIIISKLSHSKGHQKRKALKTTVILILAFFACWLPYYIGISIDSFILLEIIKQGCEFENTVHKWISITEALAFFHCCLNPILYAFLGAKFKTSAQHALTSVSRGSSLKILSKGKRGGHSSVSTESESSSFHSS

On to `O=C(O)c1cc2ccccc2cc1O` [Compound 1, 3-Hydroxy-2-naphthoic acid], for which the values for the IC50 at CXCR-4 [1] and against CXCR-4 [2] were 150 µM and 0.6 µM, respectively.
